{
  "source": "patent US20130344026A1",
  "about": "“Dimeric Smac Mimetics” (priority 2009, published 2013)",
  "data": [
    {"system": "HCC461", "assay": "cell viability assay in HCC461, compound alone", "type": "cell-based", "conditions": "HCC461, HCC461 cells, compound alone; read-out: IC50 (uM) in cell viability assay in HCC461", "units": {"IC50": "µM"}, "values": [
      {"smiles": "CN[C@@H](C)C(=O)N[C@H](C(=O)N1C[C@@H](NC(=O)CCCCC(=O)N[C@H]2C[C@@H](C(=O)N[C@@H]3CCCc4ccccc43)N(C(=O)[C@@H](NC(=O)[C@H](C)NC)C(C)(C)C)C2)C[C@H]1C(=O)N[C@@H]1CCCc2ccccc21)C(C)(C)C", "note": "[Compound P3-22]", "IC50": 0.003},
      {"smiles": "CN[C@@H](C)C(=O)N[C@H](C(=O)N1C[C@@H](NC(=O)c2cc(C(=O)N[C@H]3C[C@@H](C(=O)N[C@@H]4CCCc5ccccc54)N(C(=O)[C@@H](NC(=O)[C@H](C)NC)C(C)(C)C)C3)cc(C(C)(C)C)c2)C[C@H]1C(=O)N[C@@H]1CCCc2ccccc21)C(C)(C)C", "note": "[Compound P3-23]", "IC50": 0.007},
      {"smiles": "CN[C@@H](C)C(=O)N[C@H](C(=O)N1C[C@@H](NC(=O)C(C)C(C)C(=O)N[C@H]2C[C@@H](C(=O)N[C@@H]3CCCc4ccccc43)N(C(=O)[C@@H](NC(=O)[C@H](C)NC)C(C)(C)C)C2)C[C@H]1C(=O)N[C@@H]1CCCc2ccccc21)C(C)(C)C", "note": "(stereo partly shown) [Compound P3-24]", "IC50": 0.006},
      {"smiles": "CN[C@@H](C)C(=O)N[C@H](C(=O)N1C[C@@H](Oc2cccc(O[C@H]3C[C@@H](C(=O)NC4CCCc5ccccc54)N(C(=O)[C@@H](NC(=O)[C@H](C)NC)C(C)(C)C)C3)c2)C[C@H]1C(=O)NC1CCCc2ccccc21)C(C)(C)C", "note": "(stereo partly shown) [Compound P3-25]", "IC50": 0.007},
      {"smiles": "CN[C@@H](C)C(=O)N[C@H](C(=O)N1C[C@@H](NC(=O)c2nn[nH]c2C(=O)N[C@H]2C[C@@H](C(=O)NC3CCCc4ccccc43)N(C(=O)[C@@H](NC(=O)[C@H](C)NC)C(C)(C)C)C2)CC1C(=O)N[C@@H]1CCCc2ccccc21)C(C)(C)C", "note": "(stereo partly shown) [Compound P3-26]", "IC50": 0.058},
      {"smiles": "CN[C@@H](C)C(=O)N[C@H](C(=O)N1C[C@@H](NC(=O)c2cc(Br)cc(C(=O)N[C@H]3C[C@@H](C(=O)NC4CCCc5ccccc54)N(C(=O)[C@@H](NC(=O)[C@H](C)NC)C(C)(C)C)C3)c2)CC1C(=O)N[C@@H]1CCCc2ccccc21)C(C)(C)C", "note": "(stereo partly shown) [Compound P3-29]", "IC50": 0.016},
      {"smiles": "CN[C@@H](C)C(=O)N[C@H](C(=O)N1C[C@@H](NC(=O)c2cc(C(=O)N[C@H]3C[C@@H](C(=O)NC4CCCc5ccccc54)N(C(=O)[C@@H](NC(=O)[C@H](C)NC)C(C)(C)C)C3)ccc2Br)CC1C(=O)N[C@@H]1CCCc2ccccc21)C(C)(C)C", "note": "(stereo partly shown) [Compound P3-30]", "IC50": 0.013},
      {"smiles": "CN[C@@H](C)C(=O)N[C@H](C(=O)N1C[C@@H](NC(=O)[C@H]2CC[C@H](C(=O)N[C@H]3C[C@@H](C(=O)N[C@@H]4CCCc5ccccc54)N(C(=O)[C@@H](NC(=O)[C@H](C)NC)C(C)(C)C)C3)CC2)C[C@H]1C(=O)N[C@@H]1CCCc2ccccc21)C(C)(C)C", "note": "[Compound P3-31]", "IC50": 0.002},
      {"smiles": "CN[C@@H](C)C(=O)N[C@H](C(=O)N1C[C@@H](NC(=O)C/C=C/CC(=O)N[C@H]2C[C@@H](C(=O)N[C@@H]3CCCc4ccccc43)N(C(=O)[C@@H](NC(=O)[C@H](C)NC)C(C)(C)C)C2)C[C@H]1C(=O)N[C@@H]1CCCc2ccccc21)C(C)(C)C", "note": "[Compound P3-32]", "IC50": 0.006},
      {"smiles": "CN[C@@H](C)C(=O)N[C@H](C(=O)N1C[C@@H](NC(=O)CC(C)(C)CC(=O)N[C@H]2C[C@@H](C(=O)N[C@@H]3CCCc4ccccc43)N(C(=O)[C@@H](NC(=O)[C@H](C)NC)C(C)(C)C)C2)C[C@H]1C(=O)N[C@@H]1CCCc2ccccc21)C(C)(C)C", "note": "[Compound P3-33]", "IC50": 0.017},
      {"smiles": "CN[C@@H](C)C(=O)N[C@H](C(=O)N1C[C@@H](NC(=O)[C@@H]2[C@@H]3CC[C@@H](C3)[C@@H]2C(=O)N[C@H]2C[C@@H](C(=O)N[C@@H]3CCCc4ccccc43)N(C(=O)[C@@H](NC(=O)[C@H](C)NC)C(C)(C)C)C2)C[C@H]1C(=O)N[C@@H]1CCCc2ccccc21)C(C)(C)C", "note": "[Compound P3-34]", "IC50": 0.08},
      {"smiles": "CN[C@@H](C)C(=O)N[C@H](C(=O)N1C[C@@H](NC(=O)CNCC(=O)N[C@H]2C[C@@H](C(=O)N[C@@H]3CCCc4ccccc43)N(C(=O)[C@@H](NC(=O)[C@H](C)NC)C(C)(C)C)C2)C[C@H]1C(=O)N[C@@H]1CCCc2ccccc21)C(C)(C)C", "note": "[Compound P3-35]", "IC50": 0.048},
      {"smiles": "CN[C@@H](C)C(=O)N[C@H](C(=O)N1C[C@@H](NC(=O)c2nc[nH]c2C(=O)N[C@H]2C[C@@H](C(=O)N[C@@H]3CCCc4ccccc43)N(C(=O)[C@@H](NC(=O)[C@H](C)NC)C(C)(C)C)C2)C[C@H]1C(=O)N[C@@H]1CCCc2ccccc21)C(C)(C)C", "note": "[Compound P3-36]", "IC50": 2.38},
      {"smiles": "CN[C@@H](C)C(=O)N[C@H](C(=O)N1C[C@@H](NC(=O)c2ccc(-c3ccc(C(=O)N[C@H]4C[C@@H](C(=O)N[C@@H]5CCCc6ccccc65)N(C(=O)[C@@H](NC(=O)[C@H](C)NC)C(C)(C)C)C4)cc3)cc2)C[C@H]1C(=O)N[C@@H]1CCCc2ccccc21)C(C)(C)C", "note": "[Compound P3-37]", "IC50": 0.008},
      {"smiles": "CN[C@@H](C)C(=O)N[C@H](C(=O)N1C[C@@H](NC(=O)c2ccc3cc(C(=O)N[C@H]4C[C@@H](C(=O)N[C@@H]5CCCc6ccccc65)N(C(=O)[C@@H](NC(=O)[C@H](C)NC)C(C)(C)C)C4)ccc3c2)C[C@H]1C(=O)N[C@@H]1CCCc2ccccc21)C(C)(C)C", "note": "[Compound P3-38]", "IC50": 0.007},
      {"smiles": "CN[C@@H](C)C(=O)N[C@H](C(=O)N1C[C@@H](NC(=O)c2cccnc2-c2ncccc2C(=O)N[C@H]2C[C@@H](C(=O)NC3CCCc4ccccc43)N(C(=O)[C@@H](NC(=O)[C@H](C)NC)C(C)(C)C)C2)CC1C(=O)N[C@@H]1CCCc2ccccc21)C(C)(C)C", "note": "(stereo partly shown) [Compound P3-39]", "IC50": 0.006},
      {"smiles": "CN[C@@H](C)C(=O)N[C@H](C(=O)N1C[C@@H](NC(=O)c2ccc(-c3ccc(C(=O)N[C@H]4C[C@@H](C(=O)NC5CCCc6ccccc65)N(C(=O)[C@@H](NC(=O)[C@H](C)NC)C(C)(C)C)C4)cn3)nc2)CC1C(=O)N[C@@H]1CCCc2ccccc21)C(C)(C)C", "note": "(stereo partly shown) [Compound P3-40]", "IC50": 0.005},
      {"smiles": "CN[C@@H](C)C(=O)N[C@H](C(=O)N1C[C@@H](NC(=O)c2cc(C(=O)N[C@H]3C[C@@H](C(=O)N[C@@H]4CCCc5ccccc54)N(C(=O)[C@@H](NC(=O)[C@H](C)NC)C(C)(C)C)C3)cc(N(S(C)(=O)=O)S(C)(=O)=O)c2)C[C@H]1C(=O)N[C@@H]1CCCc2ccccc21)C(C)(C)C", "note": "[Compound P3-41]", "IC50": 0.016},
      {"smiles": "CN[C@@H](C)C(=O)N[C@H](C(=O)N1C[C@@H](NC(=O)c2cc(NC(C)=O)cc(C(=O)N[C@H]3C[C@@H](C(=O)N[C@@H]4CCCc5ccccc54)N(C(=O)[C@@H](NC(=O)[C@H](C)NC)C(C)(C)C)C3)c2)C[C@H]1C(=O)N[C@@H]1CCCc2ccccc21)C(C)(C)C", "note": "[Compound P3-42]", "IC50": 0.011},
      {"smiles": "CN[C@@H](C)C(=O)N[C@H](C(=O)N1C[C@@H](NC(=O)c2cccc(C(=O)N[C@H]3C[C@@H](C(=O)N[C@H](C)C4CCCCC4)N(C(=O)[C@@H](NC(=O)[C@H](C)NC)C(C)(C)C)C3)c2)C[C@H]1C(=O)N[C@H](C)C1CCCCC1)C(C)(C)C", "note": "[Compound P3-43]", "IC50": 0.057},
      {"smiles": "CN[C@@H](C)C(=O)N[C@H](C(=O)N1C[C@@H](NC(=O)c2cc(N)cc(C(=O)N[C@H]3C[C@@H](C(=O)N[C@H](C)C4CCCCC4)N(C(=O)[C@@H](NC(=O)[C@H](C)NC)C(C)(C)C)C3)c2)C[C@H]1C(=O)N[C@H](C)C1CCCCC1)C(C)(C)C", "note": "[Compound P3-44]", "IC50": 0.04},
      {"smiles": "CN[C@@H](C)C(=O)N[C@H](C(=O)N1C[C@@H](NC(=O)c2cccc(C(=O)N[C@H]3C[C@@H](C(=O)Nc4cccc5c4CCCC5)N(C(=O)[C@@H](NC(=O)[C@H](C)NC)C(C)(C)C)C3)c2)C[C@H]1C(=O)Nc1cccc2c1CCCC2)C(C)(C)C", "note": "[Compound P3-45]", "IC50": 0.181},
      {"smiles": "CN[C@@H](C)C(=O)N[C@H](C(=O)N1C[C@@H](NC(=O)C2CCCC(C(=O)N[C@H]3C[C@@H](C(=O)N[C@H](C)C4CCCCC4)N(C(=O)[C@@H](NC(=O)[C@H](C)NC)C(C)(C)C)C3)C2)C[C@H]1C(=O)N[C@H](C)C1CCCCC1)C(C)(C)C", "note": "(stereo partly shown) [Compound P3-46]", "IC50": 0.024},
      {"smiles": "CN[C@@H](C)C(=O)N[C@H](C(=O)N1CCC[C@H]1C(=O)N[C@H](CNC(=O)[C@@H]1CC[C@](C)(C(=O)NC[C@@H](NC(=O)[C@@H]2CCCN2C(=O)[C@@H](NC(=O)[C@H](C)NC)C(C)(C)C)c2ccccc2)C1(C)C)c1ccccc1)C(C)(C)C", "note": "[Compound P3-48]", "IC50": 0.183},
      {"smiles": "CN[C@@H](C)C(=O)N[C@H](C(=O)N1C[C@@H](NC(=O)c2cccc(C(=O)N[C@H]3C[C@@H](C(=O)N(C)Cc4ccccc4)N(C(=O)[C@@H](NC(=O)[C@H](C)NC)C(C)(C)C)C3)c2)C[C@H]1C(=O)N(C)Cc1ccccc1)C(C)(C)C", "note": "[Compound P3-49]", "IC50": 0.141},
      {"smiles": "CN[C@@H](C)C(=O)N[C@H](C(=O)N1C[C@@H](NC(=O)c2cccc(C(=O)N[C@H]3C[C@@H](C(=O)N[C@H](C)c4ccccc4)N(C(=O)[C@@H](NC(=O)[C@H](C)NC)C(C)(C)C)C3)c2)C[C@H]1C(=O)N[C@H](C)c1ccccc1)C(C)(C)C", "note": "[Compound P3-50]", "IC50": 0.063},
      {"smiles": "CC[C@@H](C)C(=O)N[C@H](C(=O)N1C[C@@H](NC(=O)c2cccc(C(=O)N[C@H]3C[C@@H](C(=O)NC(c4ccccc4)c4ccccc4)N(C(=O)[C@@H](NC(=O)[C@H](C)NC)C(C)(C)C)C3)c2)C[C@H]1C(=O)NC(c1ccccc1)c1ccccc1)C(C)(C)C", "note": "[Compound P3-51]", "IC50": 0.026},
      {"smiles": "CN[C@@H](C)C(=O)N[C@H](C(=O)N1C[C@@H](NC(=O)c2cc(N)cc(C(=O)N[C@H]3C[C@@H](C(=O)N[C@H](C)c4ccccc4)N(C(=O)[C@@H](NC(=O)[C@H](C)NC)C(C)(C)C)C3)c2)C[C@H]1C(=O)N[C@H](C)c1ccccc1)C(C)(C)C", "note": "[Compound P3-52]", "IC50": 0.044}
    ]},
    {"system": "HCC461", "assay": "cell viability assay in HCC461, compound alone", "type": "cell-based", "conditions": "HCC461 cells, compound alone; read-out: IC50 (uM) in cell viability assay in HCC461", "units": {"IC50": "µM"}, "values": [
      {"smiles": "CN[C@@H](C)C(=O)N[C@H](C(=O)N1C[C@@H](NC(=O)C2CCCC(C(=O)N[C@H]3C[C@@H](C(=O)NC4CCCc5ccccc54)N(C(=O)[C@@H](NC(=O)[C@H](C)NC)C(C)(C)C)C3)C2)CC1C(=O)N[C@@H]1CCCc2ccccc21)C(C)(C)C", "note": "(stereo partly shown) [Compound P3-27]", "IC50": 0.031},
      {"smiles": "CN[C@@H](C)C(=O)N[C@H](C(=O)N1C[C@@H](NC(=O)C2CCCC(C(=O)N[C@H]3C[C@@H](C(=O)NC4CCCc5ccccc54)N(C(=O)[C@@H](NC(=O)[C@H](C)NC)C(C)(C)C)C3)C2)CC1C(=O)N[C@@H]1CCCc2ccccc21)C(C)(C)C", "note": "(stereo partly shown) [Compound P3-28]", "IC50": 0.019},
      {"smiles": "CN[C@@H](C)C(=O)N[C@H](C(=O)N1C[C@@H](NC(=O)C2CCCC(C(=O)N[C@H]3C[C@@H](C(=O)N[C@H](C)C4CCCCC4)N(C(=O)[C@@H](NC(=O)[C@H](C)NC)C(C)(C)C)C3)C2)C[C@H]1C(=O)N[C@H](C)C1CCCCC1)C(C)(C)C", "note": "(stereo partly shown) [Compound P3-47]", "IC50": 0.022}
    ]}
  ]
}
